From EPA's aquatic toxicity sets

What follows are compounds tested on Pimephales promelas (assay: 96 h LC50 (-log10 mol/L); higher = more toxic).
In the case of `Cc1ccccc1O`, the “96 h LC50 (-log10 mol/L)” value is reported as 3.89. For `c1ccc2nc3ccccc3cc2c1`, the “96 h LC50 (-log10 mol/L)” value was 4.89. `CCCCCCCCCc1ccc(O)cc1` was tested, and the “96 h LC50 (-log10 mol/L)” value was 5.91. `CCCCCC` was tested, and the “96 h LC50 (-log10 mol/L)” value was 4.54. For `CCc1ccc(C)nc1`, the “96 h LC50 (-log10 mol/L)” value was 3.17. In the case of `CCCCCCCO`, the “96 h LC50 (-log10 mol/L)” value is reported as 3.51. In the case of `Oc1ccccc1`, the “96 h LC50 (-log10 mol/L)” value is reported as 3.5. With `Cc1cccc([N+](=O)[O-])c1` the “96 h LC50 (-log10 mol/L)” value was 3.64. In the case of `C=Cc1ccccc1`, the “96 h LC50 (-log10 mol/L)” value is reported as 3.79. With `CC1=CC(=O)c2ccccc2C1=O` the “96 h LC50 (-log10 mol/L)” value was 6.2. `Clc1cccc(Cl)c1` was tested, and the “96 h LC50 (-log10 mol/L)” value was 4.27. `O=[N+]([O-])c1ccccc1` was tested, and the “96 h LC50 (-log10 mol/L)” value was 3.02. In the case of `Nc1ccc(Cl)c(Cl)c1Cl`, the “96 h LC50 (-log10 mol/L)” value is reported as 4.74. `CC#N` was tested, and the “96 h LC50 (-log10 mol/L)” value was 1.61. With `COc1cccc(O)c1` the “96 h LC50 (-log10 mol/L)” value was 3.22. For `CCCCC(=O)O`, the “96 h LC50 (-log10 mol/L)” value was 3.12. `c1ccc2c(c1)[nH]c1ccccc12` was tested, and the “96 h LC50 (-log10 mol/L)” value was 5.25. In the case of `Cc1cc(O)ccc1Cl`, the “96 h LC50 (-log10 mol/L)” value is reported as 4.42. `Cc1ccc(O)cc1` was tested, and the “96 h LC50 (-log10 mol/L)” value was 3.67. In the case of `Cc1ccccc1`, the “96 h LC50 (-log10 mol/L)” value is reported as 3.43. With `CC(C)=O` the “96 h LC50 (-log10 mol/L)” value was 0.854. `c1ccc(-c2ccccc2)cc1` was tested, and the “96 h LC50 (-log10 mol/L)” value was 4.72. For `CCCO`, the “96 h LC50 (-log10 mol/L)” value was 1.12. `Clc1ccccc1` was tested, and the “96 h LC50 (-log10 mol/L)” value was 3.65. For `CC(O)CC(C)(C)O` (stereo not drawn), the “96 h LC50 (-log10 mol/L)” value was 1.04. `O=[N+]([O-])c1ccccc1O` was tested, and the “96 h LC50 (-log10 mol/L)” value was 2.94. `O=[N+]([O-])c1ccc(O)c([N+](=O)[O-])c1` was tested, and the “96 h LC50 (-log10 mol/L)” value was 4.22. `CNc1ccccc1` was tested, and the “96 h LC50 (-log10 mol/L)” value was 3.03. In the case of `CCO`, the “96 h LC50 (-log10 mol/L)” value is reported as 0.534. For `C=CC=O`, the “96 h LC50 (-log10 mol/L)” value was 6.32. For `Oc1cc(Cl)c(Cl)cc1Cl`, the “96 h LC50 (-log10 mol/L)” value was 5.27.

These compounds were tested on Daphnia magna (assay: 48 h LC50 (-log10 mol/L); higher = more toxic).
`Cc1ccccc1O` was tested, and the “48 h LC50 (-log10 mol/L)” value was 3.86. With `c1ccc2nc3ccccc3cc2c1` the “48 h LC50 (-log10 mol/L)” value was 4.85. In the case of `CCCCCCCCCc1ccc(O)cc1`, the “48 h LC50 (-log10 mol/L)” value is reported as 6.06. With `CCCCCC` the “48 h LC50 (-log10 mol/L)” value was 4.34. With `CCc1ccc(C)nc1` the “48 h LC50 (-log10 mol/L)” value was 3.48. With `CCCCCCCO` the “48 h LC50 (-log10 mol/L)” value was 3.23. With `Oc1ccccc1` the “48 h LC50 (-log10 mol/L)” value was 3.85. In the case of `Cc1cccc([N+](=O)[O-])c1`, the “48 h LC50 (-log10 mol/L)” value is reported as 4.04. With `C=Cc1ccccc1` the “48 h LC50 (-log10 mol/L)” value was 3.53. In the case of `CC1=CC(=O)c2ccccc2C1=O`, the “48 h LC50 (-log10 mol/L)” value is reported as 5.54. In the case of `Clc1cccc(Cl)c1`, the “48 h LC50 (-log10 mol/L)” value is reported as 4.3. For `O=[N+]([O-])c1ccccc1`, the “48 h LC50 (-log10 mol/L)” value was 3.62. With `Nc1ccc(Cl)c(Cl)c1Cl` the “48 h LC50 (-log10 mol/L)” value was 5.43. `CC#N` was tested, and the “48 h LC50 (-log10 mol/L)” value was 1.06. With `COc1cccc(O)c1` the “48 h LC50 (-log10 mol/L)” value was 3.48. In the case of `CCCCC(=O)O`, the “48 h LC50 (-log10 mol/L)” value is reported as 3.36. For `c1ccc2c(c1)[nH]c1ccccc12`, the “48 h LC50 (-log10 mol/L)” value was 4.7. For `Cc1cc(O)ccc1Cl`, the “48 h LC50 (-log10 mol/L)” value was 4.85. In the case of `Cc1ccc(O)cc1`, the “48 h LC50 (-log10 mol/L)” value is reported as 3.71. `Cc1ccccc1` was tested, and the “48 h LC50 (-log10 mol/L)” value was 3. In the case of `CC(C)=O`, the “48 h LC50 (-log10 mol/L)” value is reported as 0.673. `c1ccc(-c2ccccc2)cc1` was tested, and the “48 h LC50 (-log10 mol/L)” value was 4.91. For `CCCO`, the “48 h LC50 (-log10 mol/L)” value was 0.935. For `Clc1ccccc1`, the “48 h LC50 (-log10 mol/L)” value was 3.92. With `CC(O)CC(C)(C)O` (stereo not drawn) the “48 h LC50 (-log10 mol/L)” value was 1.22. For `O=[N+]([O-])c1ccccc1O`, the “48 h LC50 (-log10 mol/L)” value was 4.02. For `O=[N+]([O-])c1ccc(O)c([N+](=O)[O-])c1`, the “48 h LC50 (-log10 mol/L)” value was 4.61. In the case of `CNc1ccccc1`, the “48 h LC50 (-log10 mol/L)” value is reported as 5.79. For `CCO`, the “48 h LC50 (-log10 mol/L)” value was 0.59. In the case of `C=CC=O`, the “48 h LC50 (-log10 mol/L)” value is reported as 5.99. `Oc1cc(Cl)c(Cl)cc1Cl` was tested, and the “48 h LC50 (-log10 mol/L)” value was 4.86.

Each compound was assayed on Tetrahymena pyriformis (assay: 48 h IGC50 (-log10 mol/L); higher = more toxic).
In the case of `Cc1ccccc1O`, the “48 h IGC50 (-log10 mol/L)” value is reported as 2.71. For `c1ccc2nc3ccccc3cc2c1`, the “48 h IGC50 (-log10 mol/L)” value was 4.4. In the case of `CCCCCCCCCc1ccc(O)cc1`, the “48 h IGC50 (-log10 mol/L)” value is reported as 5.47. `CCCCCC` was tested, and the “48 h IGC50 (-log10 mol/L)” value was 3.72. `CCc1ccc(C)nc1` was tested, and the “48 h IGC50 (-log10 mol/L)” value was 2.82. In the case of `CCCCCCCO`, the “48 h IGC50 (-log10 mol/L)” value is reported as 3.1. With `Oc1ccccc1` the “48 h IGC50 (-log10 mol/L)” value was 2.65. For `Cc1cccc([N+](=O)[O-])c1`, the “48 h IGC50 (-log10 mol/L)” value was 3.42. With `C=Cc1ccccc1` the “48 h IGC50 (-log10 mol/L)” value was 2.98. `CC1=CC(=O)c2ccccc2C1=O` was tested, and the “48 h IGC50 (-log10 mol/L)” value was 4.54. In the case of `Clc1cccc(Cl)c1`, the “48 h IGC50 (-log10 mol/L)” value is reported as 3.56. `O=[N+]([O-])c1ccccc1` was tested, and the “48 h IGC50 (-log10 mol/L)” value was 3.14. `Nc1ccc(Cl)c(Cl)c1Cl` was tested, and the “48 h IGC50 (-log10 mol/L)” value was 4.35. `CC#N` was tested, and the “48 h IGC50 (-log10 mol/L)” value was 0.723. In the case of `COc1cccc(O)c1`, the “48 h IGC50 (-log10 mol/L)” value is reported as 2.67. In the case of `CCCCC(=O)O`, the “48 h IGC50 (-log10 mol/L)” value is reported as 2.73. For `c1ccc2c(c1)[nH]c1ccccc12`, the “48 h IGC50 (-log10 mol/L)” value was 3.91. With `Cc1cc(O)ccc1Cl` the “48 h IGC50 (-log10 mol/L)” value was 3.8. For `Cc1ccc(O)cc1`, the “48 h IGC50 (-log10 mol/L)” value was 2.84. With `Cc1ccccc1` the “48 h IGC50 (-log10 mol/L)” value was 3.25. For `CC(C)=O`, the “48 h IGC50 (-log10 mol/L)” value was 0.796. `c1ccc(-c2ccccc2)cc1` was tested, and the “48 h IGC50 (-log10 mol/L)” value was 4.05. With `CCCO` the “48 h IGC50 (-log10 mol/L)” value was 1.25. `Clc1ccccc1` was tested, and the “48 h IGC50 (-log10 mol/L)” value was 2.87. In the case of `CC(O)CC(C)(C)O` (stereo not drawn), the “48 h IGC50 (-log10 mol/L)” value is reported as 1.05. In the case of `O=[N+]([O-])c1ccccc1O`, the “48 h IGC50 (-log10 mol/L)” value is reported as 3.67. With `O=[N+]([O-])c1ccc(O)c([N+](=O)[O-])c1` the “48 h IGC50 (-log10 mol/L)” value was 4.06. `CNc1ccccc1` was tested, and the “48 h IGC50 (-log10 mol/L)” value was 3.06. In the case of `CCO`, the “48 h IGC50 (-log10 mol/L)” value is reported as 1.01. In the case of `C=CC=O`, the “48 h IGC50 (-log10 mol/L)” value is reported as 4.89. For `Oc1cc(Cl)c(Cl)cc1Cl`, the “48 h IGC50 (-log10 mol/L)” value was 5.1.
